# Entries after “also recorded” stand apart in the source; their conditions may differ. Residues, ends and D or L forms follow the SMILES beside them. *: point of attachment. Cbz = O=C(OCc1ccccc1)*; CH2F = FC*
# Key:
# [1] = tested on: isolated nuclei with mitochondria from SHEP cells; assay: Cell-free system of apoptosis: nuclear fragmentation of isolated nuclei; format: biochemical, human; settings: for effect of inhibitor on betulinic acid-induced fragmentation of nuclei / effect of inhibitor on nuclear fragmentation by mitochondria from drug-pretreated cells / effect of inhibitor on DNA fragmentation by supernatants from betulinic acid-treated mitochondria: 50 μM bongkrekic acid or 60 μM zVAD-fmk; for effect of inhibitor on DNA fragmentation by supernatants from betulinic acid-treated mitochondria: FIG. 10B
# Procedure: (§1) For determination of nuclear fragmentation, nuclei (10^3/μl) were incubated with mitochondria (1 μg/μl) in buffer D (10 mM HEPES, pH 7.4, 50 mM NaCl, 2 mM MgCl2, 5 mM EGTA, 1 mM DDT, 2 mM ATP, 10 mM phosphocreatine, 50 μg/ml creatine kinase, 10 μM cytochalasin B) for 2 h at 37° C. Nuclei were stained with propidium iodide ([…]) and analyzed by flow cytometry. For determination of caspase activation, cytosolic extracts (2 μg/μl) were incubated with mitochondria (1 μg/μl), cytochrome c (0.1-100 μM) or AIF-containing mitochondrial supernatant (0.5 μg/μl) in buffer D for 2 h at 37° C. Partially purified AIF (cytochrome c-free) was prepared as previously described (0.5 mg/ml, Susin et al., 1997, J. Exp. Med. 186, 5-37; Susin et al., 1996, J. Exp. Med. 184, 1331-41). Proteins were separated by 15% SDS-PAGE and Western blot analysis was performed as described above.
# Mitochondria isolated from SHEP cells, transfected with bcl-2 or bcl-XL or a neomycin resistance vector only, were incubated for 6 h with nuclei and 0.1-10 μg/ml betulinic acid (FIG. 8A) or 5 mM atractyloside (FIG. 8B) in the presence or absence of 50 μM bongkrekic acid or 60 μMZ-VAD-fnk. Nuclei incubated with either mitochondria from vector only cells or with betulinic acid were used as control. Nuclear apoptosis was determined by FACS analysis of propidium iodide stained DNA content.
# SHEP cells transfected with bcl-2 or bcl-XL or a neomycin resistance vector only were treated with 10 μg/ml betulinic acid or 5 mM atractyloside for 6-24 h (FIG. 8C). Mitochondria were isolated and incubated with nuclei in the presence or absence of 50 μM bongkrekic acid or 60 μMZ-VAD-fmk. Nuclei incubated with either mitochondria front vector only cells or with betulinic acid were used as control. Nuclear apoptosis was determined by FACS analysis of propidium iodide stained DNA content.
# Mitochondria isolated from SHEP cells transfected with bcl-2, Bcl-XL or a neomycin resistance vector only were treated with 10 μg/ml betulinic acid or 5 mM atractyloside for 0.5 h in the presence or absence of 50 μM bongkrekic acid or 60 μM zVAD-fmk. Mitochondrial supernatants obtained by high speed centrifugation were incubated with nuclei for 2 h at 37° C. Nuclei incubated with supernatants of untreated mitochondria were used as control.. Nuclear apoptosis was determined by FACS analysis of propidium iodide stained DNA content.
# as §1, with “cytometry (Susin et al., 1997 Exp. Cell Res. 236:397-403).” for “cytometry.”, “(10” for “(0.1-100”, “C.” for “C. Partially purified AIF (cytochrome c-free) was prepared as previously described (0.5 mg/ml, Susin et al., 1997, J. Exp. Med. 186, 5-37; Susin et al., 1996, J. Exp. Med. 184, 1331-41).”, “before.” for “above.”
# SHEP cells transfected with Bcl-2 or BCl-XL or a neomycin resistance vector only (Neo) were treated with 0.5 μg/ml Doxorubicin or 10 μg/ml Betulinic acid for 48 h (A) or 24 h (B and C). Cells transfected with a neomycin resistance vector only (Neo) were treated in the presence or absence of 50 μm BA or 60 μm zVAD-fmk. Nuclear apoptosis was determined by FACS analysis or propidium iodide-stained DNA content in intact cells (A) or in a CFS incubating isolated nuclei with mitochondria from cells treated with Doxo or betulinic acid (C). ΔΨm was determined by staining cells with the potential-sensitive fluorochrome DiOC6(3) (B).
# [2] = tested on: mitochondria isolated from SHEP cells; assay: Mitochondrial membrane potential of isolated mitochondria (DiOC6(3)); format: biochemical, human; settings: FIG. 7, 12D; for effect of inhibitor on betulinic acid-induced Δψm loss in isolated mitochondria: 50 μM bongkrekic acid or 60 μM zVAD-fmk
# Procedure: For isolation of mitochondria, cells (3×10^5 per sample) were washed twice with ice-cold PBS and resuspended with five volumes of buffer A (50 mM Tris, 1 mM EGTA, 5 mM 2-mercaproethanol, 0.2% BSA, 10 mM KH2PO4, pH 7.6, 0.4 M sucrose) and allowed to swell on ice for 20 min. Cells were homogenized with 30 strokes of a Teflon homogenizer and centrifuged at 10000 g for 10 min at 4° C. The resulting pellets were resuspended in buffer B (10 mM KH2PO4, pH 7.2, […] mannitol, 0.1% BSA). Mitochondria were separated by sucrose gradient (lower layer: 1.6 M sucrose, 10 mM KH2PO4, pH 7.5, 0.1% BSA; upper layer: 1.2 M sucrose, 10 mM KH2PO4, pH 7.5, 0.1% BSA). Interphases containing mitochondria were washed with buffer B at 18000 g for 10 min at 4° C. and the resulting mitochondrial pellets were resuspended in buffer B. For preparation of cytosolic extracts, cells (1×10^8 per sample) were washed twice with ice-cold PBS, resuspended with one volume of buffer A and allowed to swell on ice for 20 min. Cells were homogenized with 30 strokes of a Dounce homogenizer and centrifuged at 15000×g for 15 min ax 4° C. The protein concentration of mitochondria or cytosolic extracts was determined by Bradford method (Bio-Rad). For isolation of nuclei, cells were washed twice in ice-cold PBS, resuspended in 10 volumes of buffer C (10 mM PIPES, pH 7.4, 10 mM KCl, 2 mM MgCl2, 1 mM DDT, 1 mM PMSF, 10 μM cytochalasin B), allowed to swell on ice for 20 min and homogenized using a Teflon homogenizer. Homogenates were layered over 30% sucrose in buffer C and centrifuged at 800 g for 10 min. The resulting nuclear pellets were resuspended in buffer C and washed three times. Nuclei were scored at −80° C. in aliquots of 10^8 nuclei/ml until required. AIF-containing mitochondrial supernatant was prepared as described in Susin et aL, 1997, J. Exp. Med. 186, 5-37 and Susin et al., 1996, J. Exp. Med. 184, 1331-41.
# Mitochondria (5×10^5/ml) were treated with 10 μg/ml betulinic acid for 30 min, incubated with 3,3′-dihexyloxacarbocyanide iodide (DiOC6(3), 40 nM, Molecular Probes, Inc., Eugene, Oreg.) for 15 min at 37° C. and analyzed on a flow cytometer (FACS Vantage, Becton Dickinson). As a control, cells were treated with the uncoupling agent carbonyl cyanide m-chlorophenylhydrazone (mCICCP, 200 μM, Sigma).
smiles,measurement,setting,value
CO[C@H](C/C=C\C=C\CC/C=C/C[C@H](C)/C=C/C(=C\C(=O)O)CC(=O)O)/C(C)=C\C=C(/C)C(=O)O [bongkrekic acid],effect of inhibitor on betulinic acid-induced fragmentation of nuclei,[1]; FIG. 8A,inhibited
same,effect of inhibitor on nuclear fragmentation by mitochondria from drug-pretreated cells,"[1]; FIG. 8C, 12C",again blocked
same,effect of inhibitor on DNA fragmentation by supernatants from betulinic acid-treated mitochondria,[1],also blocked
same,effect of inhibitor on betulinic acid-induced Δψm loss in isolated mitochondria,[2],inhibited
COc1cccc2c1C(=O)c1c(O)c3c(c(O)c1C2=O)C[C@@](O)(C(=O)CO)C[C@@H]3O[C@H]1C[C@H](N)[C@H](O)[C@H](C)O1 [doxorubicin],nuclear fragmentation by mitochondria isolated from drug-pretreated cells,"[1]; 10 μg/ml betulinic acid or 0.5 μg/ml doxorubicin, FIG. 8C, 12C",induced nuclear DNA fragmentation
same,"nuclear DNA fragmentation, mitochondria plus nuclei plus drug","[1]; Neo control mitochondria, 0.1-10 μg/ml betulinic acid or 5 mM atractyloside, 6 h, FIG. 8A, 8B",No DNA fragmentation was observed
same,Δψm of isolated mitochondria,"[2]; mitochondria from wild type or vector-only SHEP cells, 10 μg/ml betulinic acid, 30 min",did not induce mitochondrial perturbations
"COC(=O)C[C@H](NC(=O)[C@H](C)NC(=O)[C@@H](NC(=O)OCc1ccccc1)C(C)C)C(=O)CF [zVAD-fmk, benzyloxycarbonyl-Val-Ala-Asp-Fluoromethylketone] (Cbz-Val-Ala-Asp(OMe)-CH2F)",effect of inhibitor on betulinic acid-induced fragmentation of nuclei,[1]; FIG. 8A,inhibited
same,effect of inhibitor on nuclear fragmentation by mitochondria from drug-pretreated cells,"[1]; FIG. 8C, 12C",again blocked
same,effect of inhibitor on DNA fragmentation by supernatants from betulinic acid-treated mitochondria,[1],also blocked
same,effect of inhibitor on betulinic acid-induced Δψm loss in isolated mitochondria,[2],did not interfere; also recorded: not blocked

# — patent publication US6369109B1, “Betulinic acid and derivatives thereof useful for the treatment of neuroectodermal tumor” (Deutsches Krebsforschungszentrum Stiftung des Offentlichen …, priority 1998, dated 2002)
